The subject of assay [1] is CT26.CL25 colon cancer tumor endothelial cells. The assay is described as follows: Colon CT26 ex vivo model of tumor angiogenesis. It counts as cell-based, mouse. The conditions noted are these: for 48 hrs (morphology observations after 48 hours): Conc. 40 μm; for cytotoxicity at 40 µM: Mus musculus, Endothelial cell, 48 h, read-out: Cell death. In outline: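 Pieces of CT26 mouse tumor (~0.075 mm³) embedded in Matrigel and cultured in endothelial growth medium at 37 °C, 5% CO2 until endothelial outgrowth appeared (about 7 days), then treated. About 48 h after drug addition, live/dead staining with fluorescein diacetate and propidium iodide was imaged in green and red channels.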

Assay [2] concerns LL/2 lung cancer tumor endothelial cells. In words: Lung LL2 ex vivo model of tumor angiogenesis. It is filed as cell-based, mouse. To be noted: for 48 hrs (morphology observations): LL/2 tumor endothelial cells; for cytotoxicity at 40 µM: Mus musculus, Endothelial cell, 48 h, read-out: Cell death; for Cell death: drug treatment for two days, ratio of red area to total endothelial cell area. In outline: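 LL2 mouse tumor fragments (~0.075 mm³) embedded in Matrigel and cultured in endothelial growth medium at 37 °C until endothelial outgrowth (~4 days) before treatment. Cell death assessed e.g. 48 h after drug by fluorescein diacetate (live)/propidium iodide (dead) staining and red/green fluorescence imaging.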

These results are taken from US20250230226A1, “PLXDC1/PLXDC2 ACTIVATORS AND THEIR USE IN THE TREATMENT OF BLOOD VESSEL DISORDERS” (THE REGENTS OF THE UNIVERSITY OF CALIFORNIA, priority 2019, published 2025).

Regarding `CCCCOc1ccc(S(=O)(=O)c2cnc3ccc(SC)cc3c2N2CCC(N3CCCCC3)CC2)cc1` [Compound 159], in assay [1], the “48 hrs (morphology observations after 48 hours)” value is “**** (100% of endothelial cells vesicularize in cell shape and look flattened in morphology (indicating disintegration of the cell body))”; the cytotoxicity at 40 µM was 100%. In assay [2] (40 μm), the “48 hrs (morphology observations)” value was “**** (100% of endothelial cells vesicularize in cell shape and look flattened in morphology (indicating disintegration of the cell body))”. Further, in assay [2], the cytotoxicity at 40 µM came out at 100%.

Take `CCCCOc1ccc(S(=O)(=O)c2cnc3ccc(SC)cc3c2N2CCCN(C)CC2)cc1` [Compound 160]: in assay [1], the “48 hrs (morphology observations after 48 hours)” value was “**** (100% of endothelial cells vesicularize in cell shape and look flattened in morphology (indicating disintegration of the cell body))”; the cytotoxicity at 40 µM was 100%. In addition, in assay [2] (40 μm), the “48 hrs (morphology observations)” value was “**** (100% of endothelial cells vesicularize in cell shape and look flattened in morphology (indicating disintegration of the cell body))”. Moreover, in assay [2], the cytotoxicity at 40 µM came out at 100%.

For the compound `CCCCOc1ccc(S(=O)(=O)c2cnc3ccc(C(=O)OCC)cc3c2N2CCC(N3CCC(O)CC3)CC2)cc1` [Compound 161], in assay [1], the “48 hrs (morphology observations after 48 hours)” value was “**** (100% of endothelial cells vesicularize in cell shape and look flattened in morphology (indicating disintegration of the cell body))”; the cytotoxicity at 40 µM was 100%. In assay [2] (40 μm), the “48 hrs (morphology observations)” value is “**** (100% of endothelial cells vesicularize in cell shape and look flattened in morphology (indicating disintegration of the cell body))”; the Cell death is listed as 90%.

With `CCCCOc1ccc(S(=O)(=O)c2cnc3ccc(SC)cc3c2N2CCC(N3CCC(O)CC3)CC2)cc1` [Compound 162], the “48 hrs (morphology observations after 48 hours)” value in assay [1] is “*** (100% of endothelial cells vesicularize in cell shape)”. Further, in assay [2] (40 μm), the “48 hrs (morphology observations)” value is listed as “*** (more than 50% but less than 100% of endothelial cells vesicularize in cell shape)” and the Cell death is reported as 70%.

`CCCCOc1ccc(S(=O)(=O)c2cnc3ccc([S+](C)[O-])cc3c2N2CCCN(C)CC2)cc1` (centres unmarked) [Compound 163]: in assay [1], the “48 hrs (morphology observations after 48 hours)” value is “**** (100% of endothelial cells vesicularize in cell shape and look flattened in morphology (indicating disintegration of the cell body))”; the cytotoxicity at 40 µM is 100%. In assay [2] (40 μm), the “48 hrs (morphology observations)” value was “**** (100% of endothelial cells vesicularize in cell shape and look flattened in morphology (indicating disintegration of the cell body))”; the Cell death is on record as 95%.

Regarding `CCCCOc1ccc(S(=O)(=O)c2cnc3ccc(S(C)(=O)=O)cc3c2N2CCCN(C)CC2)cc1` [Compound 164], in assay [1], the “48 hrs (morphology observations after 48 hours)” value was “**** (100% of endothelial cells vesicularize in cell shape and look flattened in morphology (indicating disintegration of the cell body))”; the cytotoxicity at 40 µM is 100%. Besides, in assay [2] (40 μm), the “48 hrs (morphology observations)” value was “**** (100% of endothelial cells vesicularize in cell shape and look flattened in morphology (indicating disintegration of the cell body))”; the Cell death came to 95%.

Consider `CCN(CC)C(=O)c1ccc2ncc(S(=O)(=O)c3ccc(OC)cc3)c(N3CCCN(C)CC3)c2c1` [Compound 165], for which, in assay [1], the “48 hrs (morphology observations after 48 hours)” value was found to be 0 and the cytotoxicity at 40 µM turned out to be 10%. Besides, the “48 hrs (morphology observations)” value in assay [2] (40 μm) is on record as “* (50% or less of cells vesicularize in cell shape)”. Moreover, in assay [2], the cytotoxicity at 40 µM came to 10%.

Turning to `CCN(CC)CCNC(=O)c1ccc2ncc(S(=O)(=O)c3ccc(OC)cc3)c(N3CCCN(C)CC3)c2c1` [Compound 166], in assay [1], the “48 hrs (morphology observations after 48 hours)” value is “*** (100% of endothelial cells vesicularize in cell shape)” and the cytotoxicity at 40 µM was 60%. In assay [2] (40 μm), the “48 hrs (morphology observations)” value came out at 0 and the Cell death came to 10%.

For the compound `CCCCOc1ccc(S(=O)(=O)c2cnc3ccc(C(=O)OCC)cc3c2N2CCSCC2)cc1` [Compound 191], in assay [1], the “48 hrs (morphology observations after 48 hours)” value was determined as 0 and the cytotoxicity at 40 µM is 10%. Also, in assay [2] (40 μm), the Cell death came out at 30%.

Consider `CCCCOc1ccc(S(=O)(=O)c2cnc3ccc(C(=O)NC(C)C)cc3c2N2CCCN(C)CC2)cc1` [Compound 192], for which, in assay [1], the “48 hrs (morphology observations after 48 hours)” value is 0 and the cytotoxicity at 40 µM came out at 10%. In assay [2] (40 μm), the “48 hrs (morphology observations)” value is recorded as “*** (more than 50% but less than 100% of endothelial cells vesicularize in cell shape)” and the Cell death came out at 60%.

Consider `CCCCOc1ccc(S(=O)(=O)c2cnc3ccc(C(=O)N(CC)CC)cc3c2N2CCC(N3CCCCC3)CC2)cc1` [Compound 201], for which, in assay [1], the “48 hrs (morphology observations after 48 hours)” value was “* (50% or less of cells vesicularize in cell shape)” and the cytotoxicity at 40 µM was determined as 10%. Besides, in assay [2] (40 μm), the “48 hrs (morphology observations)” value came to 0 and the Cell death was found to be 30%.

In the case of `CCCCOc1ccc(S(=O)(=O)c2cnc3ccc(C(=O)NCCO)cc3c2N2CCC(N3CCCCC3)CC2)cc1` [Compound 202], in assay [1], the “48 hrs (morphology observations after 48 hours)” value is reported as 0 and the cytotoxicity at 40 µM is 10%. Besides, the cytotoxicity at 40 µM in assay [2] amounted to 30%.

Consider `CCCCOc1ccc(S(=O)(=O)c2cnc3ccc(SC)cc3c2N2CCCN(CCN3CCCCC3)CC2)cc1` [Compound 206], for which, in assay [1], the “48 hrs (morphology observations after 48 hours)” value was “**** (100% of endothelial cells vesicularize in cell shape and look flattened in morphology (indicating disintegration of the cell body))”; the cytotoxicity at 40 µM came to 100%. In assay [2] (20 μm), the “48 hrs (morphology observations)” value came to 0 and the Cell death is recorded as 30%.

Regarding `CCCCOc1ccc(S(=O)(=O)c2cnc3ccc([S+](C)[O-])cc3c2N2CCC(N3CCCC(O)C3)CC2)cc1` (centres unmarked) [Compound 208], in assay [1], the “48 hrs (morphology observations after 48 hours)” value is reported as 0 and the cytotoxicity at 40 µM worked out at 20%. Besides, the Cell death in assay [2] (40 μm) turned out to be 50%.

As to `CCCCOc1ccc(S(=O)(=O)c2cnc3ccc([S+](C)[O-])cc3c2N2CCCN(CCN3CCCCC3)CC2)cc1` (centres unmarked) [Compound 209], in assay [1], the “48 hrs (morphology observations after 48 hours)” value is reported as “*** (100% of endothelial cells vesicularize in cell shape)” and the cytotoxicity at 40 µM turned out to be 90%. Also, in assay [2] (40 μm), the “48 hrs (morphology observations)” value is recorded as “* (50% or less of cells vesicularize in cell shape)” and the Cell death stood at 60%.

Regarding `CCCCOc1ccc(S(=O)(=O)c2cnc3ccc([S+](C)[O-])cc3c2N2CCCN(CCN3CCCC3)CC2)cc1` (centres unmarked) [Compound 210], in assay [1], the “48 hrs (morphology observations after 48 hours)” value is on record as “*** (100% of endothelial cells vesicularize in cell shape)” and the cytotoxicity at 40 µM came to 70%. For the same compound, in assay [2] (40 μm), the “48 hrs (morphology observations)” value stood at 0 and the Cell death is on record as 50%.

For `CCCCOc1ccc(S(=O)(=O)c2cnc3ccc(C(=O)OCC)cc3c2N2CCC(N3CCCN(C)CC3)CC2)cc1` [Compound 211], in assay [1], the “48 hrs (morphology observations after 48 hours)” value is “**** (100% of endothelial cells vesicularize in cell shape and look flattened in morphology (indicating disintegration of the cell body))”; the cytotoxicity at 40 µM worked out at 100%. Also, the “48 hrs (morphology observations)” value in assay [2] (40 μm) is “**** (100% of endothelial cells vesicularize in cell shape and look flattened in morphology (indicating disintegration of the cell body))”. Further, in assay [2], the cytotoxicity at 40 µM is 100%.

As for `CCCCOc1ccc(S(=O)(=O)c2cnc3ccc(C(=O)OCC)cc3c2N2CCC(N3CCOCC3)CC2)cc1` [Compound 212], in assay [1], the “48 hrs (morphology observations after 48 hours)” value was 0 and the cytotoxicity at 40 µM was 10%. Further, in assay [2] (40 μm), the Cell death turned out to be 50%.

`CCCCOc1ccc(S(=O)(=O)c2cnc3ccc(C(=O)OCC)cc3c2N2CCC(N3CCN(CCO)CC3)CC2)cc1` [Compound 214]: the “48 hrs (morphology observations after 48 hours)” value in assay [1] is “**** (100% of endothelial cells vesicularize in cell shape and look flattened in morphology (indicating disintegration of the cell body))”. The cytotoxicity at 40 µM in assay [1] and in assay [2] was 100% throughout. The “48 hrs (morphology observations)” value in assay [2] (40 μm) was “**** (100% of endothelial cells vesicularize in cell shape and look flattened in morphology (indicating disintegration of the cell body))”.

As for `CCCCOc1ccc(S(=O)(=O)c2cnc3ccc(C(=O)OCC)cc3c2N2CCC(N3CCC(c4ccccc4)CC3)CC2)cc1` [Compound 215], in assay [1], the “48 hrs (morphology observations after 48 hours)” value was 0 and the cytotoxicity at 40 µM is 20%. Further, the “48 hrs (morphology observations)” value in assay [2] (40 μm) is 0. Besides, the cytotoxicity at 40 µM in assay [2] was 30%.

As to `CCCCOc1ccc(S(=O)(=O)c2cnc3ccc(C(=O)OCC)cc3c2N2CCC(N3CCC(N4CCCCC4)CC3)CC2)cc1` [Compound 216], in assay [1], the “48 hrs (morphology observations after 48 hours)” value was “**** (100% of endothelial cells vesicularize in cell shape and look flattened in morphology (indicating disintegration of the cell body))”; the cytotoxicity at 40 µM is 100%. Besides, in assay [2] (40 μm), the “48 hrs (morphology observations)” value was “**** (100% of endothelial cells vesicularize in cell shape and look flattened in morphology (indicating disintegration of the cell body))”. In addition, in assay [2], the cytotoxicity at 40 µM was 100%.

Turning to `CCCCCCCOc1ccc(S(=O)(=O)c2cnc3ccc(SC)cc3c2N2CCCN(C)CC2)cc1` [Compound 218], in assay [1], the “48 hrs (morphology observations after 48 hours)” value is on record as “*** (100% of endothelial cells vesicularize in cell shape)” and the cytotoxicity at 40 µM was 90%. Besides, in assay [2] (40 μm), the “48 hrs (morphology observations)” value was “**** (100% of endothelial cells vesicularize in cell shape and look flattened in morphology (indicating disintegration of the cell body))”; the Cell death is 100%.
